Assay results as given in patent US20230114728A1 (Venatorx Pharmaceuticals, Inc., priority 2019, published 2023).
Converted amounts (≈) assume the structure as drawn.

How the values were obtained:
[1] = test system: N. gonorrhoeae WHO Q; assay: Liquid broth MIC in Fastidious broth; format: cell-based; settings: Neisseria gonorrhoeae, read-out: Minimum Inhibitory Concentration, N. gonorrhoeae WHO Q
Summary of the method: (§1)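 Colonies were swabbed from chocolate agar after 24 h growth and standardised by optical density at 600 nm. Compounds were serially diluted twofold in Fastidious broth, and bacteria added to give 5×10^5 CFU/mL. After about 24 h at 36 °C in 5% CO2, the lowest concentration allowing under 10% growth was taken as MIC.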

[2] = test system: N. gonorrhoeae WHO Z; assay: Liquid broth MIC in Fastidious broth; format: cell-based; settings: Neisseria gonorrhoeae, read-out: Minimum Inhibitory Concentration, N. gonorrhoeae WHO Z
Summary of the method: as §1

SMILES	MIC [1]	MIC [2]
CCN1CCN(C(=O)NC(C(=O)N[C@H]2Cc3cccc(C(=O)O)c3OB2O)c2ccc(C(=O)O)c(OC)c2)C(=O)C1=O (stereo partly drawn) [Example 48, (3R)-3-(2-(4-carboxy-3-methoxyphenyl)-2-(4-ethyl-2,3-dioxopiperazine-1-carboxamido)acetamido)-2-hydroxy-3,4-dihydro-2H-benzo[e][1,2]oxaborinine-8-carboxylic acid]	4 to 8 µg/mL (≈ 6.87 to 13.7 µM)	1 to 2 µg/mL (≈ 1.72 to 3.43 µM)
O=C(NC(C(=O)N[C@H]1Cc2ccc(F)c(C(=O)O)c2OB1O)c1ncc(O)cc1F)c1ccnc(F)c1 (stereo partly drawn) [Example 53, (3R)-7-fluoro-3-(2-(3-fluoro-5-hydroxypyridin-2-yl)-2-(2-fluoroisonicotinamido)acetamido)-2-hydroxy-3,4-dihydro-2H-benzo[e][1,2]oxaborinine-8-carboxylic acid]	> 64 µg/mL	> 64 µg/mL
CCN1CCN(C(=O)NC(C(=O)N[C@H]2Cc3ccc(C=O)c(C(=O)O)c3OB2O)c2csc(N)n2)C(=O)C1=O (stereo partly drawn) [Example 57, (3R)-3-(2-(2-aminothiazol-4-yl)-2-(4-ethyl-2,3-dioxopiperazine-1-carboxamido)acetamido)-7-formyl-2-hydroxy-3,4-dihydro-2H-benzo[e][1,2]oxaborinine-8-carboxylic acid]	> 64 µg/mL	> 64 µg/mL
CCN1CCN(C(=O)NC(C(=O)N[C@H]2Cc3ccc(CO)c(C(=O)O)c3OB2O)c2csc(N)n2)C(O)C1=O (stereo partly drawn) [Example 58, (3R)-3-(2-(2-aminothiazol-4-yl)-2-(4-ethyl-2-hydroxy-3-oxopiperazine-1-carboxamido)acetamido)-2-hydroxy-7-(hydroxymethyl)-3,4-dihydro-2H-benzo[el][1,2]oxaborinine-8-carboxylic acid]	> 64 µg/mL	> 64 µg/mL
CCN1CCN(C(=O)NC(C(=O)N[C@H]2Cc3ccc(O[C@@H]4CN[C@H](C(=O)N(C)C)C4)c(C(=O)O)c3OB2O)c2ccccc2)C(=O)C1=O (stereo partly drawn) [Example 59, (3R)-7-(((3S,5S)-5-(dimethylcarbamoyl)pyrrolidin-3-yl)oxy)-3-(2-(4-ethyl-2,3-dioxopiperazine-1-carboxamido)-2-phenylacetamido)-2-hydroxy-3,4-dihydro-2H-benzo[e][1,2]oxaborinine-8-carboxylic acid]	> 64 µg/mL	> 64 µg/mL
CCN1CCN(C(=O)NC(C(=O)N[C@H]2Cc3ccc(OCCN)c(C(=O)O)c3OB2O)c2ccccc2)C(=O)C1=O (stereo partly drawn) [Example 60, (3R)-7-(2-aminoethoxy)-3-(2-(4-ethyl-2,3-dioxopiperazine-1-carboxamido)-2-phenylacetamido)-2-hydroxy-3,4-dihydro-2H-benzo[e][1,2]oxaborinine-8-carboxylic acid]	> 64 µg/mL	> 64 µg/mL
CCN1CCN(C(=O)NC(C(=O)N[C@H]2Cc3cccc(C(=O)O)c3OB2O)c2cccc(O)c2)C(=O)C1=O (stereo partly drawn) [Example 68, (3R)-3-(2-(4-ethyl-2,3-dioxopiperazine-1-carboxamido)-2-(3-hydroxyphenyl)acetamido)-2-hydroxy-3,4-dihydro-2H-benzo[e][1,2]oxaborinine-8-carboxylic acid]	> 64 µg/mL	16 to 32 µg/mL (≈ 30.5 to 61 µM)
CCN1CCN(C(=O)NC(C(=O)N[C@H]2Cc3cccc(C(=O)O)c3OB2O)c2ccc(O)cc2O)C(=O)C1=O (stereo partly drawn) [Example 69, (3R)-3-(2-(2,4-dihydroxyphenyl)-2-(4-ethyl-2,3-dioxopiperazine-1-carboxamido)acetamido)-2-hydroxy-3,4-dihydro-2H-benzo[e][1,2]oxaborinine-8-carboxylic acid]	> 64 µg/mL	16 to 32 µg/mL (≈ 29.6 to 59.2 µM)
CCN1CCN(C(=O)NC(C(=O)N[C@H]2Cc3cccc(C(=O)O)c3OB2O)c2ccc(O)cc2OC)C(=O)C1=O (stereo partly drawn) [Example 70, (3R)-3-(2-(4-ethyl-2,3-dioxopiperazine-1-carboxamido)-2-(4-hydroxy-2-methoxyphenyl)acetamido)-2-hydroxy-3,4-dihydro-2H-benzo[e][1,2]oxaborinine-8-carboxylic acid]	> 64 µg/mL	> 64 µg/mL
CCN1CCN(C(=O)NC(C(=O)N[C@H]2Cc3cccc(C(=O)O)c3OB2O)c2cccc(N)c2)C(=O)C1=O (stereo partly drawn) [Example 72, (3R)-3-(2-(3-aminophenyl)-2-(4-ethyl-2,3-dioxopiperazine-1-carboxamido)acetamido)-2-hydroxy-3,4-dihydro-2H-benzo[e][1,2]oxaborinine-8-carboxylic acid]	16 to 32 µg/mL (≈ 30.6 to 61.1 µM)	16 to 32 µg/mL (≈ 30.6 to 61.1 µM)
CCN1CCN(C(=O)NC(C(=O)N[C@H]2Cc3cccc(C(=O)O)c3OB2O)c2cccc([N+](=O)[O-])c2)C(=O)C1=O (stereo partly drawn) [Example 75, (3R)-3-(2-(4-ethyl-2,3-dioxopiperazine-1-carboxamido)-2-(3-nitrophenyl)acetamido)-2-hydroxy-3,4-dihydro-2H-benzo[e][1,2]oxaborinine-8-carboxylic acid]	16 to 32 µg/mL (≈ 28.9 to 57.8 µM)	16 to 32 µg/mL (≈ 28.9 to 57.8 µM)
CCN1CCN(C(=O)NC(C(=O)N[C@H]2Cc3cccc(C(=O)O)c3OB2O)c2cccc(NS(C)(=O)=O)c2)C(=O)C1=O (stereo partly drawn) [Example 76, (3R)-3-(2-(4-ethyl-2,3-dioxopiperazine-1-carboxamido)-2-(3-(methylsulfonamido)phenyl)acetamido)-2-hydroxy-3,4-dihydro-2H-benzo[e][1,2]oxaborinine-8-carboxylic acid]	> 64 µg/mL	> 64 µg/mL
CCN1CCN(C(=O)NC(C(=O)N[C@H]2Cc3cccc(C(=O)O)c3OB2O)c2cc(O)ccc2O)C(=O)C1=O (stereo partly drawn) [Example 77, (3R)-3-(2-(2,5-dihydroxyphenyl)-2-(4-ethyl-2,3-dioxopiperazine-1-carboxamido)acetamido)-2-hydroxy-3,4-dihydro-2H-benzo[e][1,2]oxaborinine-8-carboxylic acid]	> 64 µg/mL	> 64 µg/mL
N=C(N)NCCN1CCN(C(=O)NC(C(=O)N[C@H]2Cc3ccc(F)c(C(=O)O)c3OB2O)c2ccc(C(=O)O)c(F)c2)C(=O)C1=O (stereo partly drawn) [Example 78, (3R)-3-(2-(4-carboxy-3-fluorophenyl)-2-(4-(2-guanidinoethyl)-2,3-dioxopiperazine-1-carboxamido)acetamido)-7-fluoro-2-hydroxy-3,4-dihydro-2H-benzo[e][1,2]oxaborinine-8-carboxylic acid]	> 64 µg/mL	16 to 32 µg/mL (≈ 24.8 to 49.6 µM)
NCCN1CCN(C(=O)NC(C(=O)N[C@H]2Cc3cccc(C(=O)O)c3OB2O)c2cc(Cl)c(O)cc2F)C(=O)C1=O (stereo partly drawn) [Example 87, (3R)-3-(2-(4-(2-aminoethyl)-2,3-dioxopiperazine-1-carboxamido)-2-(5-chloro-2-fluoro-4-hydroxyphenyl)acetamido)-2-hydroxy-3,4-dihydro-2H-benzo[e][1,2]oxaborinine-8-carboxylic acid]	> 64 µg/mL	> 64 µg/mL
NCCN1CCN(C(=O)N[C@@H](C(=O)N[C@H]2Cc3cccc(C(=O)O)c3OB2O)c2cc(Cl)c(O)cc2Cl)C(=O)C1=O [Example 90, (R)-3-((R)-2-(4-(2-aminoethyl)-2,3-dioxopiperazine-1-carboxamido)-2-(2,5-dichloro-4-hydroxyphenyl)acetamido)-2-hydroxy-3,4-dihydro-2H-benzo[e][1,2]oxaborinine-8-carboxylic acid]	> 64 µg/mL	> 64 µg/mL
NCCN1CCN(C(=O)NC(C(=O)N[C@H]2Cc3cccc(C(=O)O)c3OB2O)c2cc(F)c(O)cc2F)C(=O)C1=O (stereo partly drawn) [Example 93, (3R)-3-(2-(4-(2-aminoethyl)-2,3-dioxopiperazine-1-carboxamido)-2-(2,5-difluoro-4-hydroxyphenyl)acetamido)-2-hydroxy-3,4-dihydro-2H-benzo[e][1,2]oxaborinine-8-carboxylic acid]	> 64 µg/mL	> 64 µg/mL
